Source: patent US20160076075A1 (priority 2014, published 2016)

How the values were obtained:
[1] = test system: IMCSzyme™ (recombinant glucuronidase); experiment: IMCSzyme hydrolysis of opiate glucuronides; format: biochemical; details: for Cleavage in the presence of the IMCSzyme (in words): compared with planar THCA-glucuronide
[2] = test system: IMCSzyme™ (recombinant glucuronidase); format: biochemical
[3] = Hydrolysis of THCA glucuronide at 65° C. with no enzyme; format: physicochemical; details: for No Enzyme (% Hydrolysis): 65° C.
Description: (§1) To a 10 mL volumetric flask add 1 mL ACN. Add 18.5 μL of 10 μg/mL THCA Glucuronide working solution adjusted to allow quantitation of THCA at 18.5 ng/mL post hydrolysis. QS to line with NHU.
(§2) Pipet 50 μL sample into a 750 μL autosampler vial. Pipet 50 μL of prepared enzyme into vial (this will yield 500 U in final 500 μL volume). Vortex and heat 15, 30, 45, and 60 minutes. Then pipet 400 μL of THCA D9 IS into vial. Vortex and move to instrument.
In the presence of enzyme, the THCA glucuronide is hydrolyzed completely by 15 min.

[4] = test system: IMCSzyme™ (recombinant glucuronidase); experiment: IMCSzyme hydrolysis of THCA glucuronide with and without water miscible organic media; format: biochemical
Description: To a 10 mL volumetric flask add 5 mL of 0.2M Sodium Phosphate buffer pH 7.5. Then add 1.0 mL of IMCS enzyme. QS to the line with 0.2M phosphate buffer, cap and invert several times to mix well. Final enzyme concentration is 5000 U.
To a 10 mL volumetric flask add 6 mL of 50/50 ACN/MeOH. Add […] of THCA D9 100 μg/mL. Then add 1.0 mL of IMCS enzyme stock (>5000 U). QS to the line with 0.2M sodium phosphate buffer. Final enzyme concentration is 5000 U.
In a 10 mL volumetric flask add 6 mL of 50/50 ACN/MeOH. Add 25 μL of THCA D9 (100 μg/mL). QS to the line with DI water, cap and invert several times to mix well. Concentration of IS will be 250 ng/mL.
as §1
Pipet 50 μL sample into a 750 μL autosampler vial. Pipet 50 μL of prepared enzyme into vial (this will yield 500 U in final 500 μL volume) and wait 5, 10, 15, and 20 minutes. Then pipet 400 μL of THCA D9 IS into the vial. Vortex and move to instrument.
Pipet 50 μL sample into a 750 μL, autosampler vial. Then pipet 450 μL, of Enzyme Stock Solution With Organic (see above) into vial. Wait 5, 10, 15, and 20 minutes. Vortex and move to instrument.

[5] = test system: Red Abalone beta-glucuronidase (Kura Biotec); experiment: Red Abalone beta-glucuronidase hydrolysis of THCA glucuronide; format: biochemical; details: for Enzyme + Organic Solvent(s) (% Hydrolysis) / Enzyme (% Hydrolysis): 65° C.; for Enzyme + Organic Solvent(s) (% Hydrolysis): ACN/MeOH; for Enzyme (% Hydrolysis): without organic
Description: To a 10 mL volumetric flask add 5 mL of DI water. Then add 1.0 mL of Kura Biotec enzyme. QS to the line with DI water, cap and invert several times to mix well. Final enzyme concentration is 5000 U.
In a 10 mL volumetric flask add 6 mL of 50/50 ACN/MeOH. Add 25 μL of THCA D9 100 μg/mL. Then add 1.0 mL of IMCS enzyme. QS to the line with DI water. Final enzyme concentration is 5000 U.
To a 10 mL volumetric flask add 6 mL of 50/50 ACN/MeOH. Add 25 μL of THCA D9 (100 μg/mL). QS to the line with DI water, cap and invert several times to mix well. Concentration of IS will be 250 ng/mL.
as §1, §2
Pipet 50 μL sample into a 750 μL autosampler vial. Then pipet 450 μL of Enzyme Stock Solution With Organic (see above) into vial. Vortex and heat 15, 30, 45, and 60 minutes. Vortex and move to instrument.

With `CN1CC[C@]23c4c5ccc(O[C@@H]6O[C@H](C(=O)O)[C@@H](O)[C@H](O)[C@H]6O)c4O[C@H]2[C@@H](O)C=C[C@H]3[C@H]1C5` [Morphine-3-Glucuronide] as the molecule, how does the “Mean % Hydrolysis” value ([1]; 55° C., 0 min) read?
Its value is 99.5%.

And the “Mean % Hydrolysis” value ([1]; 55° C., 15 min)?
Its value is 99.1%.

What about the “Mean % Hydrolysis” value ([1]; 55° C., 30 min) of the same molecule?
Its value is 99.1%.

What about the “Mean % Hydrolysis” value ([1]; 55° C., 45 min) of the same molecule?
Its value is 97.4%.

And the “Mean % Hydrolysis” value ([1]; 55° C., 60 min)?
Its value is 99.9%.

And the “Mean % Hydrolysis” value ([1]; 65° C., 0 min)?
Its value is 99.5%.

What about the “Mean % Hydrolysis” value ([1]; 65° C., 15 min) of the same molecule?
The value was 95.9%.

And the “Mean % Hydrolysis” value ([1]; 65° C., 30 min)?
Its value is 95.8%.

What about the “Mean % Hydrolysis” value ([1]; 65° C., 45 min) of the same molecule?
The value was 97.9%.

And the “Mean % Hydrolysis” value ([1]; 65° C., 60 min)?
The value was 97.6%.

Which “Cleavage by the recombinant enzyme (in words)” value [2] does the source give for `CO[C@]12CC[C@@]3(C[C@@H]1[C@](C)(O)C(C)(C)C)[C@H]1Cc4ccc(O[C@@H]5O[C@H](C(=O)O)[C@@H](O)[C@H](O)[C@H]5O)c5c4[C@@]3(CCN1CC1CC1)[C@H]2O5` [Buprenorphine Glucuronide] here?
The value was “rapidly cleaves”.

Which “Mean % Hydrolysis” value ([1]; 55° C., 0 min) does the source give for `CN1CC[C@]23c4c5ccc(O)c4O[C@H]2[C@@H](O[C@@H]2O[C@H](C(=O)O)[C@@H](O)[C@H](O)[C@H]2O)C=C[C@H]3[C@H]1C5` [Morphine-6-Glucuronide] here?
The value was 40.4%.

And the “Mean % Hydrolysis” value ([1]; 55° C., 15 min)?
The value was 67.9%.

What about the “Mean % Hydrolysis” value ([1]; 55° C., 30 min) of the same molecule?
The value was 83.6%.

What about the “Mean % Hydrolysis” value ([1]; 55° C., 45 min) of the same molecule?
The value was 95.9%.

What about the “Mean % Hydrolysis” value ([1]; 55° C., 60 min) of the same molecule?
The value was 91.7%.

And the “Mean % Hydrolysis” value ([1]; 65° C., 0 min)?
Its value is 40.4%.

What about the “Mean % Hydrolysis” value ([1]; 65° C., 15 min) of the same molecule?
The value was 71.2%.

What about the “Mean % Hydrolysis” value ([1]; 65° C., 30 min) of the same molecule?
The value was 88.3%.

And the “Mean % Hydrolysis” value ([1]; 65° C., 45 min)?
The value was 98.5%.

And the “Mean % Hydrolysis” value ([1]; 65° C., 60 min)?
Its value is 97.9%.

What about the “Cleavage in the presence of the IMCSzyme (in words)” value [1] of the same molecule?
Its value is “take more time and heat to cleave”.

Which “Mean % Hydrolysis” value ([1]; 55° C., 0 min) does the source give for `COc1ccc2c3c1O[C@H]1[C@@H](O[C@@H]4O[C@H](C(=O)O)[C@@H](O)[C@H](O)[C@H]4O)C=C[C@H]4[C@@H](C2)N(C)CC[C@@]341` [Codeine Glucuronide] here?
Its value is 15.7%.

And the “Mean % Hydrolysis” value ([1]; 55° C., 15 min)?
Its value is 40.2%.

And the “Mean % Hydrolysis” value ([1]; 55° C., 30 min)?
Its value is 65.6%.

And the “Mean % Hydrolysis” value ([1]; 55° C., 45 min)?
Its value is 76.6%.

What about the “Mean % Hydrolysis” value ([1]; 55° C., 60 min) of the same molecule?
Its value is 81.8%.

And the “Mean % Hydrolysis” value ([1]; 65° C., 0 min)?
Its value is 15.7%.

What about the “Mean % Hydrolysis” value ([1]; 65° C., 15 min) of the same molecule?
Its value is 42.7%.

What about the “Mean % Hydrolysis” value ([1]; 65° C., 30 min) of the same molecule?
The value was 64.1%.

What about the “Mean % Hydrolysis” value ([1]; 65° C., 45 min) of the same molecule?
The value was 75.5%.

And the “Mean % Hydrolysis” value ([1]; 65° C., 60 min)?
The value was 79.8%.

What about the “Cleavage in the presence of the IMCSzyme (in words)” value [1] of the same molecule?
The value was “take more time and heat to cleave”.

For `CCCCCc1cc(O)c2c(c1)OC(C)(C)C1CCC(C(=O)OC3OC(C(=O)O)C(O)C(O)C3O)=CC21` (centres unmarked) [THCA Glucuronide], which “No Enzyme (% Hydrolysis)” value ([3]; 15 min) is on record?
Its value is 0.03%.

And the “No Enzyme (% Hydrolysis)” value ([3]; 30 min)?
Its value is 0.03%.

What about the “No Enzyme (% Hydrolysis)” value ([3]; 45 min) of the same molecule?
Its value is 0.03%.

What about the “No Enzyme (% Hydrolysis)” value ([3]; 60 min) of the same molecule?
The value was 0.03%.

What about the “Hydrolysis in the absence of enzyme (in words)” value ([3]; elevated temperature) of the same molecule?
The value was “no hydrolysis”.

What about the “Mean % Hydrolysis” value ([4]; Enzyme added and incubated, then organic media added, 5 min at 55° C.) of the same molecule?
The value was 89.2%.

And the “Mean % Hydrolysis” value ([4]; Enzyme added and incubated, then organic media added, 5 min at 65° C.)?
Its value is 90.1%.

And the “Mean % Hydrolysis” value ([4]; Enzyme and organic media added at same time, 5 min at Room Temp)?
The value was 110.2%.

And the “Mean % Hydrolysis” value ([4]; Enzyme and organic media added at same time, 10 min at Room Temp)?
The value was 101.7%.

What about the “Mean % Hydrolysis” value ([4]; Enzyme and organic media added at same time, 15 min at Room Temp) of the same molecule?
The value was 104.9%.

And the “Recombinant enzyme hydrolysis (in words)” value ([4]; room temperature, time to fill the 96-well plate (~15 min using robotics))?
Its value is “complete”.

And the “Enzyme + Organic Solvent(s) (% Hydrolysis)” value ([5]; 15 min)?
The value was 121%.

And the “Enzyme (% Hydrolysis)” value ([5]; 15 min)?
Its value is 104%.

And the “Enzyme + Organic Solvent(s) (% Hydrolysis)” value ([5]; 30 min)?
The value was 130%.

And the “Enzyme (% Hydrolysis)” value ([5]; 30 min)?
Its value is 97%.

What about the “Enzyme + Organic Solvent(s) (% Hydrolysis)” value ([5]; 45 min) of the same molecule?
The value was 134%.

And the “Enzyme (% Hydrolysis)” value ([5]; 45 min)?
The value was 102%.

What about the “Enzyme + Organic Solvent(s) (% Hydrolysis)” value ([5]; 60 min) of the same molecule?
The value was 136%.

What about the “Enzyme (% Hydrolysis)” value ([5]; 60 min) of the same molecule?
Its value is 101%.

What about the Hydrolysis ([5]; enzyme and 60% water miscible solvent, as early as 15 min) of the same molecule?
The Hydrolysis was 100%.

And the “Time by which hydrolyzed completely” value ([5]; in the presence of enzyme)?
The value was no more than 15 min.

What does the source list for `CN1CC[C@]23c4c5ccc(O[C@@H]6O[C@H](C(=O)O)[C@@H](O)[C@H](O)[C@H]6O)c4O[C@H]2C(=O)CC[C@@]3(O)[C@H]1C5` [Oxymorphone Glucuronide]?
Mean % Hydrolysis ([1]; 55° C., 0 min): 43.6%; Mean % Hydrolysis ([1]; 55° C., 15 min): 71.7%; Mean % Hydrolysis ([1]; 55° C., 30 min): 90.5%; Mean % Hydrolysis ([1]; 55° C., 45 min): 97.0%; Mean % Hydrolysis ([1]; 55° C., 60 min): 101.2%; Mean % Hydrolysis ([1]; 65° C., 0 min): 43.6%; Mean % Hydrolysis ([1]; 65° C., 15 min): 76.2%; Mean % Hydrolysis ([1]; 65° C., 30 min): 89.7%; Mean % Hydrolysis ([1]; 65° C., 45 min): 95.6%; Mean % Hydrolysis ([1]; 65° C., 60 min): 100.0%

For `CN1CC[C@]23c4c5ccc(O[C@@H]6O[C@H](C(=O)O)[C@@H](O)[C@H](O)[C@H]6O)c4O[C@H]2C(=O)CC[C@H]3[C@H]1C5` [Hydromorphone Glucuronide], which “Mean % Hydrolysis” value ([1]; 55° C., 0 min) is on record?
Its value is 58.5%.

What about the “Mean % Hydrolysis” value ([1]; 55° C., 15 min) of the same molecule?
Its value is 80.5%.

And the “Mean % Hydrolysis” value ([1]; 55° C., 30 min)?
Its value is 91.1%.

What about the “Mean % Hydrolysis” value ([1]; 55° C., 45 min) of the same molecule?
The value was 93.3%.

What about the “Mean % Hydrolysis” value ([1]; 55° C., 60 min) of the same molecule?
Its value is 93.8%.

What about the “Mean % Hydrolysis” value ([1]; 65° C., 0 min) of the same molecule?
The value was 58.5%.

What about the “Mean % Hydrolysis” value ([1]; 65° C., 15 min) of the same molecule?
The value was 77.1%.

What about the “Mean % Hydrolysis” value ([1]; 65° C., 30 min) of the same molecule?
The value was 89.4%.

And the “Mean % Hydrolysis” value ([1]; 65° C., 45 min)?
Its value is 91.0%.

What about the “Mean % Hydrolysis” value ([1]; 65° C., 60 min) of the same molecule?
The value was 91.5%.
